The target of assay [1] is T1, human SGLT2 (Homo sapiens, UniProt P31639).
T1 construct: expressed in transfected cells; host or cells: CHO-K1
T1 sequence (P31639 1-672): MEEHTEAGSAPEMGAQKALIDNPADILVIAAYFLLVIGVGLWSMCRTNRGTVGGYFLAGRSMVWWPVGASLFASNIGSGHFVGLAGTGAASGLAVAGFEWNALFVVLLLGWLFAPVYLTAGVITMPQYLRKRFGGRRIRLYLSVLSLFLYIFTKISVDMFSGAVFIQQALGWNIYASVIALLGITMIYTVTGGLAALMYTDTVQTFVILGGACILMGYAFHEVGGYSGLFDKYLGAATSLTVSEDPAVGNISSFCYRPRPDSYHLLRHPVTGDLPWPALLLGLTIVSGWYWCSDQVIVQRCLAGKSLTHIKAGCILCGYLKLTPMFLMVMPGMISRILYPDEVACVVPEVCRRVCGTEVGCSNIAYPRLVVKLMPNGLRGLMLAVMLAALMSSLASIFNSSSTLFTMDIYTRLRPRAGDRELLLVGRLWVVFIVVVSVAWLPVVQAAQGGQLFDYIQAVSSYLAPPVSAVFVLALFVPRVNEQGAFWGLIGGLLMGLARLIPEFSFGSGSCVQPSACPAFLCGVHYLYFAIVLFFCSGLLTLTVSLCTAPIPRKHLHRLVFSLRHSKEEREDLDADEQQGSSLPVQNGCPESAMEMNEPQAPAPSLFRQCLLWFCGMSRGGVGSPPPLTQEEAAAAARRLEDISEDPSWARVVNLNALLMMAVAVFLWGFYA
The assay is described as follows: Inhibitory activity against methyl-α-D-glucopyranoside uptake, CHO cells stably expressing human SGLT2. Type of assay: cell-based. The note with it: for hSGLT2 selectivity: matches hSGLT1 IC50 / hSGLT2 IC50 (formula not stated). The method, boiled down:
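CHO-K1 cells stably expressing human SGLT2 were pre-incubated in sodium-free choline buffer (pH 7.4), then exposed 45 min at 37°C to test compound in sodium buffer containing 1 mM [14C]methyl-α-D-glucopyranoside. Sodium-free buffer gave baseline uptake. After washing, cells were lysed with NaOH/SDS.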

Assay [2] concerns db/db mice. The assay is described as follows: Study for glucose lowering effect in db/db mouse. The format is in vivo. The settings on record: oral, 0.3 mg/kg, relative to control group; for inhibition in vivo at 0.3 mg/kg: Mus musculus, 6 hours, Table 3-2, read-out: Percent reduction of blood glucose (%) 6 hours after administration; for Percent reduction of blood glucose (%) 24 hours after administration: Table 3-2. In outline: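 Male db/db mice, 9–11 weeks old, were grouped (n=5) by body weight/blood glucose and dosed orally by gavage with compound in 0.5% CMC at 0.3 mg/10 mL or 3 mg/10 mL (10 mL/kg); controls got vehicle. Tail blood glucose was measured by hexokinase method before and serially after dosing, expressed as % reduction versus control.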

Where [3] appears, read: Table 2-2, read-out: hhSGLT2 IC50 value.
Where [4] appears, read: inhibition of SGLT2, Table 2-1, read-out: IC50 value.

Like-named read-outs stand apart in the source and are kept apart here.

By IC50 is commonly meant the point on the concentration scale where inhibition reaches its midpoint. As to `CCc1ccc(Cc2cc3c(cc2C)CO[C@]32O[C@H](CO)[C@@H](O)[C@H](O)[C@H]2O)cc1` [Comparative Compound 1, 1,1-anhydro-1-C-[5-(4-ethylphenyl)methyl-2-(hydroxymethyl)-4-methylphenyl]-β-glucopyranose, reference compound], the IC50 in assay [1] (setting [3]) turned out to be 1.6 nM. Moreover, in assay [1], the hSGLT2 selectivity was found to be 83.
Consider `CCc1ccc(Cc2cc3c(cc2Cl)CO[C@]32O[C@H](CO)[C@@H](O)[C@H](O)[C@H]2O)cc1` [Example 1, (1S,3′R,4′S,5′S,6′R)-5-chloro-6-[(4-ethylphenyl)methyl]-3′,4′,5′,6′-tetrahydro-6′-(hydroxymethyl)-spiro[isobenzofuran-1(3H),2′-[2H]pyran]-3′,4′,5′-triol], for which, in assay [2], the inhibition in vivo at 0.3 mg/kg was determined as 42% and the “Percent reduction of blood glucose (%) 24 hours after administration” value was 32%. For the same molecule, in assay [1] (setting [3]), the IC50 came out at 1.3 nM. Also, the IC50 in assay [1] (setting [4]) worked out at 1.3 nM. Besides, the hSGLT2 selectivity in assay [1] is given as 155.
For the molecule `CCOc1ccc(Cc2cc3c(cc2Cl)CO[C@]32O[C@H](CO)[C@@H](O)[C@H](O)[C@H]2O)cc1` [Example 5, (1S,3′R,4′S,5′S,6′R)-5-chloro-6-[(4-ethoxyphenyl)methyl]-3′,4′,5′,6′-tetrahydro-6′-(hydroxymethyl)-spiro[isobenzofuran-1(3H),2′-[2H]pyran]-3′,4′,5′-triol], the inhibition in vivo at 0.3 mg/kg in assay [2] was 52%. Besides, the “Percent reduction of blood glucose (%) 24 hours after administration” value in assay [2] is on record as 25%. The IC50 in assay [1] (setting [3]) and in assay [1] (setting [4]) was 1.5 nM in each case. Moreover, in assay [1], the hSGLT2 selectivity is 283.
For the molecule `OC[C@H]1O[C@]2(OCc3cc(Cl)c(Cc4ccc5ccccc5c4)cc32)[C@H](O)[C@@H](O)[C@@H]1O` [Example 7, (1S,3′R,4′S,5′S,6′R)-5-chloro-3′,4′,5′,6′-tetrahydro-6′-(hydroxymethyl)-6-(2-naphthylmethyl)-spiro[isobenzofuran-1(3H),2′-[2H]pyran]-3′,4′,5′-triol], in assay [2], the inhibition in vivo at 0.3 mg/kg turned out to be 54% and the “Percent reduction of blood glucose (%) 24 hours after administration” value came to 42%. For the same molecule, the IC50 in assay [1] (setting [3]) was determined as 1.7 nM. Besides, in assay [1] (setting [4]), the IC50 came out at 1.7 nM. The same molecule registered a hSGLT2 selectivity in assay [1] of 224.
For `OC[C@H]1O[C@]2(OCc3cc(Cl)c(Cc4ccc(CCF)cc4)cc32)[C@H](O)[C@@H](O)[C@@H]1O` [Example 8, (1S,3′R,4′S,5′S,6′R)-5-chloro-6-[(4-(2-fluoroethyl)phenyl)methyl]-3′,4′,5′,6′-tetrahydro-6′-(hydroxymethyl)-spiro[isobenzofuran-1(3H),2′-[2H]pyran]-3′,4′,5′-triol], in assay [2], the inhibition in vivo at 0.3 mg/kg is 48% and the “Percent reduction of blood glucose (%) 24 hours after administration” value is on record as 27%. Moreover, the IC50 in assay [1] (setting [3]) came to 1.1 nM. Besides, the IC50 in assay [1] (setting [4]) came to 1.1 nM. This molecule came in with a hSGLT2 selectivity in assay [1] of 323.
In the case of `CCCc1ccc(Cc2cc3c(cc2Cl)CO[C@]32O[C@H](CO)[C@@H](O)[C@H](O)[C@H]2O)cc1` [Example 9, (1S,3′R,4′S,5′S,6′R)-5-chloro-3′,4′,5′,6′-tetrahydro-6′-(hydroxymethyl)-6-[(4-propylphenyl)methyl]-spiro[isobenzofuran-1(3H),2′-[2H]pyran]-3′,4′,5′-triol], in assay [2], the inhibition in vivo at 0.3 mg/kg was 48%. Also, in assay [2], the “Percent reduction of blood glucose (%) 24 hours after administration” value came out at 28%. The IC50 in assay [1] (setting [3]) and in assay [1] (setting [4]) was 2.3 nM each time. The same molecule registered a hSGLT2 selectivity in assay [1] of 590.
As for `CC(C)c1ccc(Cc2cc3c(cc2Cl)CO[C@]32O[C@H](CO)[C@@H](O)[C@H](O)[C@H]2O)cc1` [Example 15, (1S,3′R,4′S,5′S,6′R)-5-chloro-3′,4′,5′,6′-tetrahydro-6′-(hydroxymethyl)-6-[(4-isopropylphenyl)methyl]-spiro[isobenzofuran-1(3H),2′-[2H]pyran]-3′,4′,5′-triol], the inhibition in vivo at 0.3 mg/kg in assay [2] is 50%. The “Percent reduction of blood glucose (%) 24 hours after administration” value in assay [2] turned out to be 27%. Further, the IC50 in assay [1] (setting [3]) and in assay [1] (setting [4]) was 1.7 nM each time. Moreover, the hSGLT2 selectivity in assay [1] amounted to 596.
For the molecule `Cc1cc2c(cc1Cc1ccc(C(C)C)cc1)[C@]1(OC2)O[C@H](CO)[C@@H](O)[C@H](O)[C@H]1O` [Example 21, (1S,3′R,4′S,5′S,6′R)-3′,4′,5′,6′-tetrahydro-6′-(hydroxymethyl)-6-[(4-isopropylphenyl)methyl]-5-methyl-spiro[isobenzofuran-1(3H),2′-[2H]pyran]-3′,4′,5′-triol], in assay [2], the inhibition in vivo at 0.3 mg/kg was 51% and the “Percent reduction of blood glucose (%) 24 hours after administration” value amounted to 33%. The IC50 in assay [1] (setting [3]) came to 2 nM. For the same molecule, the 50% inhibitory concentration (IC50) in assay [1] (setting [4]) was 2.1 nM. The molecule further had a hSGLT2 selectivity in assay [1] of 341.

(Values after patent US20110275703A1, “SUBSTITUTED SPIROKETAL DERIVATIVES AND USE THEREOF AS THERAPEUTIC DRUG FOR DIABETES” (CHUGAI SEIYAKU KABUSHIKI KAISHA, priority 2007, published 2011).)
